PubChem BioAssay (NCI)
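A five-concentration, 48-hour dose response in 96-well plates underlies each endpoint, interpolated linearly between surrounding concentrations. At the GI50, growth is halved. TGI denotes the concentration required for complete inhibition of growth.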

What was measured:
Assay in all cases: inhibition of tumour cell growth, NCI panel, 48 h
[1] = tested on: A549 NSCLC
[2] = tested on: DMS 273 small cell lung
[3] = tested on: IGROV1 ovarian
[4] = tested on: SF-268 CNS
[5] = tested on: SF-295 CNS
[6] = tested on: SN12C renal
[7] = tested on: SNB-75 CNS
[8] = tested on: SNB-78 CNS
[9] = tested on: A498 renal
[10] = tested on: MDA-MB-231 breast

Structure (SMILES) | TGI [1] [µM] | TGI [2] [µM] | TGI [3] [µM] | TGI [4] [µM] | TGI [5] [µM] | TGI [6] [µM] | TGI [7] [µM] | TGI [8] [µM] | TGI [9] [µM] | GI50 [9] [µM] | GI50 [1] [µM] | GI50 [2] [µM] | GI50 [3] [µM] | GI50 [4] [µM] | GI50 [5] [µM] | GI50 [6] [µM] | GI50 [7] [µM] | GI50 [8] [µM] | GI50 [10] [µM] | TGI [10] [µM]
COC(=O)/C(C#N)=C1\CCC(O)N1 (stereo not given) | > 100 | > 100 | > 100 | > 100 | > 100 | > 100 | > 100 | > 100 | – | – | – | – | – | – | – | – | – | – | – | –
CN(C)C(=S)/N=c1\ss/c(=N\C(=S)N(C)C)n1-c1ccc(Cl)c(Cl)c1 | > 100 | > 100 | > 100 | > 100 | > 100 | > 100 | 61.2 | > 100 | > 100 | – | – | – | – | – | – | – | – | – | – | –
COC(=O)/C(C)=C/[N+](=O)[O-] | 44.1 | 34.6 | 44.1 | 51.6 | 30.3 | 41 | 30.1 | 49.8 | 43.3 | – | – | – | – | – | – | – | – | – | – | –
CC1=NN(C(=O)CC(=O)N(C(=O)c2ccccc2Cl)c2ccc(C)cc2)C(=O)C1N=Nc1ccc([N+](=O)[O-])cc1 (stereo not given) | > 67.7 | > 95.7 | > 100 | > 100 | > 100 | > 100 | > 72 | > 100 | > 100 | – | – | – | – | – | – | – | – | – | – | –
Nc1nc(CCl)nc(Nc2ccccc2)n1 | 79.4 | 14 | 36.1 | 45.2 | 81.7 | – | 50.3 | – | – | – | – | – | – | – | – | – | – | – | – | –
Cc1cc(NS(=O)(=O)c2ccc(Nc3c4ccccc4nc4c(C(=O)NCCN(C)C)cccc34)cc2)no1 | 71 | > 100 | 22.1 | 16.4 | 47.5 | > 100 | 21 | 80.4 | – | – | – | – | – | – | – | – | – | – | – | –
CC(C)CCCC(C)[C@H]1CCC2[C@H]3C(CC[C@@]21C)[C@@]1(C)CCC=C[C@]12C[C@@H]2[C@@H]3O (stereo not given in full) | > 100 | > 100 | > 100 | > 100 | > 100 | > 100 | > 100 | > 100 | > 100 | – | – | – | – | – | – | – | – | – | – | –
N.N.N.N.[Cl-].[Co+3].[N-]=[N+]=[N-].[N-]=[N+]=[N-] | > 100 | > 100 | > 100 | > 100 | > 100 | > 100 | > 100 | > 100 | > 100 | > 100 | > 100 | > 100 | > 100 | 81.6 | > 100 | > 100 | > 100 | > 100 | – | –
CCCCOC(=O)NC(=O)c1cn(CCCOC(=O)NCCCCCCNC(=O)OCCCn2cc(C(=O)NC(=O)OCCCC)c(=O)[nH]c2=O)c(=O)[nH]c1=O | > 100 | > 100 | > 100 | > 100 | > 100 | > 100 | > 100 | > 100 | > 100 | – | – | – | – | – | – | – | – | – | – | –
CC1(C)O/C(=C\c2ccccc2)C(=O)/C(=C/c2ccccc2)O1 | > 100 | > 100 | > 100 | > 100 | > 100 | > 100 | > 100 | > 100 | > 100 | – | – | – | – | – | – | – | – | – | – | –
CCOC(=N)CC(=O)Nc1cccc(C)c1C | > 100 | > 100 | > 100 | > 100 | > 100 | > 100 | > 100 | > 100 | > 100 | – | – | – | – | – | – | – | – | – | – | –
C=CCNC(=O)N(CCC)CCCCC(NC(C)=O)C(=O)NCc1ccccc1 (stereo not given) | > 100 | > 100 | > 100 | > 100 | > 100 | > 100 | > 100 | – | > 100 | – | – | – | – | – | – | – | – | – | – | –
O=C(Nc1cc(Cl)ccc1Cl)C(=O)C(c1cnc2ccccc2n1)[N+](=O)[O-] (stereo not given) | > 100 | – | > 100 | > 100 | > 100 | > 100 | > 100 | > 100 | > 100 | – | – | – | – | – | – | – | – | – | – | –
Cc1ccc(C2(O)CC(c3ccc([N+](=O)[O-])o3)=NN2C(=O)COc2ccc(Cl)cc2)cc1 (stereo not given) | 56.4 | > 62.1 | > 76.4 | 28.1 | 27.6 | 17.9 | > 48.3 | 58.9 | 22.2 | – | – | – | – | – | – | – | – | – | – | –
CC(=O)O[C@H](C[C@H](C(C)C)N(C)C(=O)[C@@H](NC(=O)[C@H]1CCCCN1C)C(C)C)c1nc(C(=O)N[C@@H](Cc2ccccc2)C[C@H](C)C(=O)O)c(CCOCc2ccccc2)s1 | > 10 | – | > 10 | > 10 | < 0.0297 | > 10 | 5.67 | – | 0.00316 | < 0.001 | < 0.001 | – | 0.00109 | < 0.001 | < 0.001 | < 0.001 | < 0.001 | – | < 0.001 | –
CCCCC1(CN2CCOCC2)S/C(=N/c2nc(CC(=O)OCC)cs2)NC1=O (stereo not given) | > 100 | – | > 100 | > 100 | > 100 | > 100 | > 100 | – | > 100 | 41.5 | 33.4 | – | 55.3 | 37.6 | 35.3 | 35.8 | 29.4 | – | 25.8 | 74.2
N#CC(=NCCO)C1=C(O)c2ccccc2C1=O | > 100 | – | > 100 | > 100 | > 100 | > 100 | > 100 | – | > 100 | – | – | – | – | – | – | – | – | – | – | > 100
Cc1cn2c(/C=C3\C(=O)N(C)c4ccc(O)cc43)c(C)nc2s1 | > 100 | – | 28.7 | > 100 | 23.6 | > 100 | 10.2 | – | 60.4 | 21.6 | 7.9 | – | 4.26 | 9.08 | 2.82 | 18.3 | 2.86 | – | 7.89 | > 100
CCOC(=O)CNC(=O)c1ccccc1Nc1ccnc(C(F)(F)F)c1 | > 100 | – | > 65.7 | > 71.6 | > 100 | > 79.4 | > 100 | – | > 100 | 64 | > 53.5 | – | 32.2 | 35.7 | 54.4 | 36.6 | > 100 | – | 33.4 | > 73.1
COCCOc1cnc2ccn([C@H](C)c3nnc4c(F)cc(-c5cnn(C)c5)cn34)c(=O)c2c1 | > 100 | – | > 100 | > 100 | > 100 | > 100 | > 100 | – | > 100 | 33.1 | > 100 | – | > 100 | > 100 | 23.4 | > 100 | 34.9 | – | > 100 | > 100
